A short description of data set [1]: CO concentration achievable in aqueous composition at various temperature and pressure. The format is physicochemical. The procedure: For example, CO can be dissolved in an aqueous liquid under higher than ambient pressure. The use of pressure to dissolve the CO increases the achievable concentration of CO in solution. […] For example, lowering of the temperature below 2° C. and increasing the pressure above 10 ATM can achieve an even greater concentration of CO dissolved in the aqueous solution. […] Although raising the pressure above 10 ATM might not be commercially practicable, it is technologically feasible at this time.
The method of making a CO-containing liquid composition relies on the use of greater than atmospheric pressure (i.e., “high” pressure) to increase the amount of CO dissolved in the liquid composition. In some embodiments, at least 1.1 atmospheres (ATM) of pressure is used in the process of introducing CO into the liquid composition. Preferably, where high pressure is used, at least 1.2 ATM is used. In certain exemplary embodiments, 2 ATM, 3 ATM, or 5 ATM is used during introduction of CO into the liquid composition. It is contemplated that pressures above 5 ATM are also suitable, such as 6 ATM, 7 ATM, 8 ATM, and 10 ATM or higher. In accordance with the discussion concerning ranges set forth above, all specific values, and all possible ranges, falling within the atmospheric conditions discussed herein are contemplated. Furthermore, variations in the source of CO, the equipment used to introduce the CO into the liquid composition, the pressure of the CO being used (i.e., volume supplied per unit time), and the atmospheric pressures used will affect the amount of time required to achieve a suitable concentration of CO in the composition.
The method of making a CO-containing liquid composition preferably includes subjecting the composition to a low temperature during the step of exposing the liquid to CO. […] A low temperature is typically a temperature at or below 4° C., preferably at or below 2° C., such as 1° C., 0° C., −1° C., −2° C., −3° C., −4° C., −5° C., −6° C., −10° C., −12° C., −14° C., −16° C., −18° C., −20° C., or below. In embodiments where the composition is exposed to a low temperature, it is preferred that the CO-containing liquid composition be sealed to preclude loss of dissolved CO over time. Accordingly, in embodiments, the method of making a CO-containing liquid composition includes dispensing the liquid composition into a sealable container and sealing the container after an appropriate amount of CO has been dissolved in the liquid composition. Dispensing of the liquid can be performed before, during, or after dissolving CO into the liquid composition. Typically, sealing will be performed under low temperature to minimize loss of dissolved CO during the process of sealing. As discussed above, any number of sealable containers and caps are known in the art of bottling and canning of liquids, and any of these can be used within the context of the present disclosure. For the sake of clarity, in embodiments where both high pressure and low temperature are used, it is preferred that sealing be performed under both high pressure and low temperature, although the same pressure and temperature used for dissolving CO into the liquid need not be used. Further, it is to be understood that, once the CO-containing liquid is sealed in a container under CO gas, it is not necessary to maintain the sealed container at high pressure and low temperature, as the sealed container will not allow dissolved CO to escape from solution.

The conditions of data set [2]: cited from earlier work.
For data set [3] the following is noted: low dose CO reaching <20% COHb saturation; cited from earlier work.

Each structure is given as a SMILES string.

With `[C-]#[O+]` [CO, carbon monoxide], the “CO Concentration Achievable in Aqueous Composition” value in data set [1] (2° C., 1 ATM) turned out to be 40 mg/L water; in data set [1] (2° C., 2 ATM), 80 mg/L water; in data set [1] (2° C., 3 ATM), 120 mg/L water; in data set [1] (2° C., 5 ATM), 200 mg/L water; in data set [1] (2° C., 10 ATM) it was 400 mg/L water; in data set [1] (21° C., 1 ATM), 25 mg/L water. In addition, the “CO Concentration in Aqueous Solution” value in data set [1] (2° C., 1 ATM) stood at 40 mg/L water; in data set [1] (2° C., 2 ATM), 80 mg/L water; in data set [1] (2° C., 3 ATM), 120 mg/L water; in data set [1] (2° C., 5 ATM), 200 mg/L water; in data set [1] (2° C., 10 ATM) it was 400 mg/L water. Also, the “half-life of the alpha-phase of CO in the human bloodstream” value in data set [2] was 4 to 6 h. For the same molecule, in data set [3], the safety and tolerability entry was “safe and tolerable”.

The record behind these values is patent publication US20230277583A1, “ENTERAL CARBON MONOXIDE FOR THE PREVENTION AND TREATMENT OF OCULAR DISEASES” (Augusta University Research Institute, Inc., priority 2022, published 2023).
